Results taken from patent publication US9376499B2, “PAR-1 activation by metalloproteinase-1 (MMP-1)” (Tufts Medical Center, Inc., priority 2009, dated 2016).
Non-standard residues stand in square brackets, D forms with d. Residues, ends and D or L forms follow the SMILES beside them. No end group written: not given here. *: point of attachment. 4Abz = Nc1ccc(C(=O)O)cc1; NHOH = ON*

Experiments:
[1] = Atherosclerotic lesion area in ApoE-deficient mice (en face Oil-Red-O); assay type: in vivo, mouse; conditions: high-fat diet 15 weeks, s.c. 6 days a week, FN-439 5 mg/kg, P1pal-7 10 mg/kg; for mean lesion area, abdominal section of the aorta: vehicle 8.9%; for mean lesion area, aortic section, % of the total area: vehicle 12.9%
Description: Twenty five (25) 86.129P2-Apoe^fm1Unc/J mice, 7 weeks old, were separated into 3 groups and fed ad libitum with high-fat/high-cholesterol diet (21% fat, 0.21% cholesterol) (0120798, Research Diets) for 15 weeks. Group I included 8 mice (n=8) was used as a control group and received Vehicle (20% DMSO in 1×PBS). Group II included 8 mice (n=8) that were treated with MMP Inhibitor I FN-439 (Calbiochem) at a dose of 5 mg/kg. Lastly, group III included 9 mice (n=9) treated with 10 mg/kg of the P1pal-7 pepducin lipopeptide. […] P1pal-7 is a cell-penetrating pepducin lipopeptide based on the third intracellular loop (i3) of human PAR1 and acts as an antagonist of PAR1 signaling. All mice were injected subcutaneously with 100 μl of the corresponding treatment for 6 days a week. At the end of the treatment, and after a 4 hours fasting, the mice were anesthetized with ketamine/xylazine and pressure-fixed with 10% formalin. The heart and the aorta of each mouse were isolated, removed and fixed for 2 days in 10% formalin and adventitial fat was removed. The abdominal area of the aorta was cut and used for whole mount immunohistochemistry. The “aortic arch/thoracic” area and the rest of the “abdominal/iliac” area of the aorta were cut open and pinned on dissecting black wax and used for “en face” staining with Oil-Red-O.
To study the extent of artherosderotic plaque formation, pinned aortas were first fixed in 10% formalin and kept in 1×PBS. The aorta of the mice were then subjected to “en face” staining with Oil-Red-O, which stains lipids red. Briefly, the PBS was drained from the samples and the stain solution was added for 45 min. The stain was drained and the samples were washed first with 70% Ethanol and then with water, in order to remove the background. Digital pictures of the stained aortas were taken and the MetaXpress software (Molecular Devices) was used to define and quantify the total aortic area as well as the lesion areas. The ratio of lesion area to the total aortic area was calculated for the “aortic arch/thoracic” and the “abdominal/iliac” area. The aorta of each mouse was isolated and separated into three sections. The abdominal section (before and after the renal arteries) was separated and used for whole mount immunohistochemistry. The remaining sections were the one from the aortic arch to the mesenteric artery (aortic) and the other from after the renal arteries to the iliac arteries (abdominal). These sections of the aorta were used for the “en face” staining and the estimation of the atherosclerotic lesion area.

platelets = experiment: Clot retraction assay in human platelet-rich plasma, collagen initiated; assay type: cell-based; conditions: 2.5-5 μg/ml collagen (titration 1-20 μg/ml); FN-439 5 μM, RWJ-56110 1 μM, MMP9/13 Inh 10 nM; 90 or 240 min
Description: Platelet rich plasma (PRP) was isolated from human whole blood anti-coagulated with 4% sodium citrate. Clot retraction assays were done in 1 ml volumes containing 800 μl PBS and 200 μl PRP plus 10 μl red blood cells to enhance contrast. Samples were pretreated with FN-439 (5 μM), MMP9/13 Inh (10 nM) or RWJ-56110 (1 μM) for 15 min and clot formation was initiated with 1-20 μg/ml type I fibrillar collagen. Samples were incubated at 37° C. for 90 or 240 min and then photographed with a digital camera. Each photograph in FIG. 6I is representative of three independent experiments.

MMP-1 [2] = target: T1, MMP-1 (Cavia porcellus, UniProt H0V812); experiment: Collagenase activity released from collagen-treated guinea pig platelets; assay type: biochemical; conditions: 20 μg/ml collagen; 3 μM FN-439 or 20 μg/ml Ab
T1 construct: endogenous in cells; host or cells: platelets of Hartley guinea pigs
T1 sequence (H0V812 1-472): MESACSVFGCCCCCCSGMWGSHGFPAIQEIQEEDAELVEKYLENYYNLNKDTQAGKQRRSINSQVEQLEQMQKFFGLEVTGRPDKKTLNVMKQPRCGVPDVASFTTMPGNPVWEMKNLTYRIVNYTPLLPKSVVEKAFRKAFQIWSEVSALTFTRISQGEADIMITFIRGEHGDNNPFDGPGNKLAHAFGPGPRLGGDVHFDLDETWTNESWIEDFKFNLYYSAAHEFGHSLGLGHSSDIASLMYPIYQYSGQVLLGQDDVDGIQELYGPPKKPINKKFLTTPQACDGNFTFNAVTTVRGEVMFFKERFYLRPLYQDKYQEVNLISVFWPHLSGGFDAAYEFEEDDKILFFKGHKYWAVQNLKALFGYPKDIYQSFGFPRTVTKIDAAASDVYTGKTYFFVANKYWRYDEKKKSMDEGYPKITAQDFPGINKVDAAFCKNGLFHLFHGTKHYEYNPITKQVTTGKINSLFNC
Description: Animal experiments were performed in accordance with the National Institutes of Health guidelines and approved by the Tufts Medical Center Institutional Animal Care and Use Committee. 2-4 week old Hartley guinea pigs (170-260 g) were anesthetized by an i.p. injection of xylazine (10 mg/kg) plus ketamine (50 mg/kg) and then catheterized via the left jugular vein and injected (200 μL) with either vehicle (20% DMSO/80% water), P1pal-7 or FN-439. For determination of collagen-dependent systemic platelet activation, 10 min after administration of inhibitors, 200 μg collagen in 200 μL of PBS was delivered via the jugular vein. Ten min after collagen injection, blood was collected into sodium citrate (1% v/v final) from the contralateral jugular vein and platelet counts were measured with a Hemavet850. The enzymatic activity of active MMP-1 in supernatants and platelet lysates was determined using DQ collagen I as fluorogenic substrate in the presence or absence of 3 μM FN-439, or 20 μg/ml of control IgG or a MMP-1 blocking Ab (preincubated for 2 h at 37° C.), as indicated.
Dashed grey line: secondary antibody alone; Solid lines: FACS profiles of platelets treated with the indicated concentrations of collagen for 15 min at 37° C. and then stained with primary MMP-1 (AB806) plus secondary antibodies.

MMP-8 = MMP-8 (Homo sapiens, UniProt P22894); conditions: cited from earlier work
Chain of MMP-8 (P22894 101-467, species assumed): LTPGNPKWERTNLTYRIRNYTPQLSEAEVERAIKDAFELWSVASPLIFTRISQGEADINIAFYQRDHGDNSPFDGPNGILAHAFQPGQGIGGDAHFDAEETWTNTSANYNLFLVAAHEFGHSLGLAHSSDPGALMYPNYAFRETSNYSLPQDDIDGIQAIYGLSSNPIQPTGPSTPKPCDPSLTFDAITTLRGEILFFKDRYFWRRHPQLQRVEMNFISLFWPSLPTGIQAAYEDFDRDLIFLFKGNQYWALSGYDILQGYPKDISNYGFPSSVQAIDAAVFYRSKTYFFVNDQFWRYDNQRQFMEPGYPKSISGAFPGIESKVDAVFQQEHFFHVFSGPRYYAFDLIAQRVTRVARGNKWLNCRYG

MMP-1 [3] = target: T1, MMP-1; experiment: Collagen zymography of arterial clots from FeCl3-injured carotid arteries; assay type: in vivo, guinea pig
Description: MMP-1 activity with the dots was determined by collagent zymography (see FIG. 6H). Platelets were isolated from guinea pigs and stimulated with 20 μg/ml collagen for 15 min and platelet supernatants and pellets, or whole resting platelets (control), prepared as described Above. Samples were resolved on a 8% type I collagen/acrylamide zymography gel and collagenase zymogram was developed as described by (Gogly et al., 1998) or immunoblotted with MMP1-Ab, AB806. Arterial dots were also removed from the Fe—Cl irnjured carotid arteries from animals (n=5) treated with FN-439 (FN439 clot) or vehicle (veh dot) as in 6F and 6G and dots were dissolved in lysis buffer and passed 5× through a 21-gauge needle. The lysates were centrifuged and supernatents resolved on the zymography gel. The two lanes on the left side of the western blot have 20 ng of proMMP-1 or 20 ng APMA-activated MMP-1, and the right hand lane in the zymogram has 0.5 μg of APMA-activated human MMP-1.

MMP-9 = MMP-9 (Homo sapiens, UniProt P14780); conditions: cited from earlier work
Chain of MMP-9 (P14780 94-707, species assumed): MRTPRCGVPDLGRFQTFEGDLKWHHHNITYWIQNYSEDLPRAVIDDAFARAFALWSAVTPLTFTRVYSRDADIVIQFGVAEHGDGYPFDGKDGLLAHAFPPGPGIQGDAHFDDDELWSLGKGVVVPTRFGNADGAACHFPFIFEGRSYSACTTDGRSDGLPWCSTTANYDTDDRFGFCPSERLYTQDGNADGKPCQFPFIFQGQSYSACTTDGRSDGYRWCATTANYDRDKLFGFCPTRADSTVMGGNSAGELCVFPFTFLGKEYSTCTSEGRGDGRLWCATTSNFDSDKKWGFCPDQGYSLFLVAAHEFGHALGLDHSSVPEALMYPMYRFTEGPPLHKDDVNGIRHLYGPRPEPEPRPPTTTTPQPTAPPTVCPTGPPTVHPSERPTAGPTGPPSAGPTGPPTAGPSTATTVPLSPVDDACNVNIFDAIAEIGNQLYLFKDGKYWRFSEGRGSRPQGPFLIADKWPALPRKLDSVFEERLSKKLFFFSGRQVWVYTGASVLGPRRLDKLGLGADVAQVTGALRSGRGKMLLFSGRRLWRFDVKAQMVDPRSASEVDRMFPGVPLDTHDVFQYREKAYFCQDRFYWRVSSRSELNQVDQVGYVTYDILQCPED

MMP-3 = MMP-3 (Homo sapiens, UniProt P08254); conditions: cited from earlier work
Chain of MMP-3 (P08254 100-477, species assumed): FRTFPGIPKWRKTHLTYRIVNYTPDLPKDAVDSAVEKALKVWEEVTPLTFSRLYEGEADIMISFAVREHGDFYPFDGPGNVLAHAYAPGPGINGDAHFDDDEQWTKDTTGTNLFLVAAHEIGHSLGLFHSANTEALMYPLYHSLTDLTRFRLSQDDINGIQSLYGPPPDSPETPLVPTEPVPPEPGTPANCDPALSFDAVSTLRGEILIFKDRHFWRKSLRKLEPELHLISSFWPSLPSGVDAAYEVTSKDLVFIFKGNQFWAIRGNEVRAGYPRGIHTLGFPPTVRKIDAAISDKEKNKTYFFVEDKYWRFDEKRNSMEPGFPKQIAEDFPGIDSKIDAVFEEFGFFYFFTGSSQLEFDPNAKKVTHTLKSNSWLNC

Compound	mean lesion area, abdominal section of the aorta [1]	mean lesion area, aortic section, % of the total area [1]	inhibition of clot formation and retraction (platelets)	block of collagenase activity released by collagen from guinea pig platelets (MMP-1 [2])	IC50 (MMP-8)	active MMP-1 in arterial thrombi of treated animals (MMP-1 [3])	IC50 (MMP-9)	IC50 (MMP-3)
P1pal-7: PAR1 i3 loop pepducin lipopeptide, KKSRALF (SEQ ID NO. 2), palmitate (also: palmitate, site not given here)	2.3%	8.1%						
CC(C)C[C@@H](NC(=O)[C@@H]1CCCN1C(=O)CNC(=O)c1ccc(N)cc1)C(=O)N[C@H](C)C(=O)NO [FN-439] (H-[4Abz]GP[dL][dA]-{NHOH})	4.1%	10.7%	completely inhibited	completely blocked	1 µM	did not contain active MMP-1	30 µM	150 µM
